Here are results for 13 molecules from the supplement of paper PMC11562712.

SMILES strings stand for the structures.

A short description of this data set: first-order primary biodegradation rate constant k (sorption-corrected, fDis-corrected) (d-1); higher = faster biodegradation. Summed up:
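River water and sieved sediment (50 g wet solid L^–1) from segments in Germany, Switzerland, Spain and Greece were spiked with 129 compounds at 1 μg L^–1 each and shaken in the dark at river water temperature (20.5 ± 3.5 °C) for 10 days, in three replicates. After filtration, water-phase subsamples were analysed by Orbitrap tandem mass spectrometry following ultra-high-performance liquid chromatography. First-order k was taken from log peak-area regression, corrected using azide-sterilised sorption controls and divided by the dissolved fraction, excluding invalid fits.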

Setting [1] is: river segment: Germany (DE) H_Contam, incubation temperature 24 °C.
Setting [2] is: river segment: Germany (DE) T_Contam, incubation temperature 24 °C.
Where [3] appears, read: river segment: Germany (DE) T_Pris, incubation temperature 24 °C.
Setting [4] is: river segment: Greece (EL) A_Contam, incubation temperature 19 °C.
The mark [5] stands for this setting: river segment: Greece (EL) G_Contam, incubation temperature 19 °C.
[6] abbreviates: river segment: Greece (EL) L_Contam, incubation temperature 19 °C.
[7] abbreviates: river segment: Spain (ES) B_Contam, incubation temperature 24 °C.
Where [8] appears, read: river segment: Spain (ES) C_Contam, incubation temperature 24 °C.
Setting [9] is: river segment: Spain (ES) F_Pris_Salt, incubation temperature 24 °C.
Setting [10] is: river segment: Spain (ES) L_Contam, incubation temperature 24 °C.
Setting [11] is: river segment: Switzerland (CH) C_Contam, incubation temperature 17 °C.
Setting [12] is: river segment: Switzerland (CH) R_Contam, incubation temperature 17 °C.
Where [13] appears, read: river segment: Switzerland (CH) U_Contam, incubation temperature 17 °C.
The mark [14] stands for this setting: river segment: Switzerland (CH) U_Pris, incubation temperature 17 °C.
[15] abbreviates: river segment: Greece (EL) G_Pris, incubation temperature 19 °C.

In the case of `CC(C)N(C(=O)CCl)c1ccccc1` [Propachlor], the “first-order primary biodegradation rate constant k” value reads like this: under setting [1], 0.302; under setting [2], 0.812; under setting [3], 0.308; under setting [4], 0.575; under setting [5], 0.271; under setting [6], 0.985. For the same molecule, the “first-order primary biodegradation rate constant k” value is, setting by setting: under setting [7], 1.07; under setting [8], 0.218; under setting [9], 0.212; under setting [10], 0.809; under setting [11], 0.33; under setting [12], 0.429. The “first-order primary biodegradation rate constant k” value is 0.649 under setting [13] and 0.552 under setting [14].
On to `CC(C)NCC(O)COc1cccc2ccccc12` (stereo not given) [Propranolol], for which the “first-order primary biodegradation rate constant k” value was 0.231 under setting [1]; 0.118 under setting [3]; 0.0886 under setting [5]; 0.0227 under setting [15]; 0.309 under setting [7]; 0.539 under setting [8]. The “first-order primary biodegradation rate constant k” value was found to be 0.0162 under setting [9]; 0.303 under setting [10]; 0.0688 under setting [11]; 0.251 under setting [12]; 0.246 under setting [13]; 0.29 under setting [14].
For the molecule `CCCOC(=O)c1ccc(O)cc1` [Propylparaben], the “first-order primary biodegradation rate constant k” value came to 2.67 under setting [1]; 1.42 under setting [3]; 2.24 under setting [8]; 0.275 under setting [9]; 4.24 under setting [10].
For `CNC(=C[N+](=O)[O-])NCCSCc1ccc(CN(C)C)o1` [Ranitidine], the “first-order primary biodegradation rate constant k” value reads like this: under setting [1], 0.498; under setting [2], 28.6; under setting [3], 17.5; under setting [4], 6.6; under setting [5], 1.42; under setting [15], 28.8. Further, the “first-order primary biodegradation rate constant k” value is 3.75 under setting [6]; 1.57 under setting [7]; 0.0642 under setting [8]; 0.103 under setting [9]; 3.75 under setting [10]; 0.639 under setting [11]. In addition, the “first-order primary biodegradation rate constant k” value came to 0.559 under setting [12], 0.756 under setting [13] and 0.596 under setting [14].
Turning to `NC(=O)c1cn(Cc2c(F)cccc2F)nn1` [Rufinamide], the “first-order primary biodegradation rate constant k” value is, setting by setting: under setting [1], 0.387; under setting [2], 1.31; under setting [3], 0.365; under setting [4], 1.16; under setting [5], 0.652; under setting [15], 2.31. Besides, the “first-order primary biodegradation rate constant k” value under setting [6] came to 1.2; the “first-order primary biodegradation rate constant k” value under setting [7] was 0.38; the “first-order primary biodegradation rate constant k” value under setting [8] is 0.286; the “first-order primary biodegradation rate constant k” value under setting [9] worked out at 0.221; the “first-order primary biodegradation rate constant k” value under setting [10] stood at 0.565; the “first-order primary biodegradation rate constant k” value under setting [11] came out at 0.44. Moreover, the “first-order primary biodegradation rate constant k” value runs as follows: under setting [12], 0.57; under setting [13], 0.383; under setting [14], 1.15.
As to `CC(C)NCC(O)c1ccc(NS(C)(=O)=O)cc1` (stereo not given) [Sotalol], the “first-order primary biodegradation rate constant k” value by setting is: under setting [1], 0.132; under setting [2], 0.195; under setting [3], 0.076; under setting [4], 0.193; under setting [5], 0.107; under setting [15], 0.0804. Also, the “first-order primary biodegradation rate constant k” value came to 0.337 under setting [6]; 0.147 under setting [7]; 0.232 under setting [8]; 0.0178 under setting [9]; 0.217 under setting [10]; 0.0406 under setting [11]. The “first-order primary biodegradation rate constant k” value was 0.0937 under setting [12], 0.108 under setting [13] and 0.171 under setting [14].
For `COc1cc(NS(=O)(=O)c2ccc(N)cc2)nc(OC)n1` [Sulfadimethoxine], the “first-order primary biodegradation rate constant k” value came out at 0.129 under setting [1]; 0.416 under setting [2]; 0.0824 under setting [4]; 0.0668 under setting [5]; 0.237 under setting [15]; 0.123 under setting [6]. For the same molecule, the “first-order primary biodegradation rate constant k” value is 1.13 under setting [7]; 1.27 under setting [10]; 0.0158 under setting [11]; 0.00496 under setting [12]; 0.0859 under setting [14].
As for `Cc1cc(C)nc(NS(=O)(=O)c2ccc(N)cc2)n1` [Sulfamethazine], the “first-order primary biodegradation rate constant k” value by setting is: under setting [1], 0.11; under setting [2], 0.365; under setting [4], 0.0988; under setting [5], 0.0667; under setting [15], 0.729; under setting [6], 0.357. For the same molecule, the “first-order primary biodegradation rate constant k” value is 0.9 under setting [10] and 0.0819 under setting [14].
In the case of `Cc1cc(NS(=O)(=O)c2ccc(N)cc2)no1` [Sulfamethoxazole], the “first-order primary biodegradation rate constant k” value is, setting by setting: under setting [1], 0.0889; under setting [2], 0.143; under setting [4], 0.0196; under setting [5], 0.0964; under setting [6], 0.063; under setting [10], 1.1.
For `COc1ccc(NS(=O)(=O)c2ccc(N)cc2)nn1` [Sulfamethoxypyridazine], the “first-order primary biodegradation rate constant k” value is, setting by setting: under setting [1], 0.0977; under setting [2], 0.382; under setting [4], 0.161; under setting [5], 0.396; under setting [15], 0.441; under setting [6], 0.195. Moreover, the “first-order primary biodegradation rate constant k” value is, setting by setting: under setting [10], 1.07; under setting [11], 0.0233; under setting [14], 0.0441.
Regarding `Nc1ccc(S(=O)(=O)Nc2nccs2)cc1` [Sulfathiazole], the “first-order primary biodegradation rate constant k” value under setting [1] is 0.0753; the “first-order primary biodegradation rate constant k” value under setting [3] came out at 0.259; the “first-order primary biodegradation rate constant k” value under setting [4] came to 1.21; the “first-order primary biodegradation rate constant k” value under setting [5] came to 1.63; the “first-order primary biodegradation rate constant k” value under setting [15] was 1.17; the “first-order primary biodegradation rate constant k” value under setting [6] came out at 0.81. For the same molecule, the “first-order primary biodegradation rate constant k” value runs as follows: under setting [7], 0.646; under setting [8], 0.00288; under setting [9], 0.0294; under setting [10], 1.5; under setting [11], 0.0717; under setting [12], 0.119. The “first-order primary biodegradation rate constant k” value under setting [14] was 0.0554.
Regarding `CCOc1ccccc1OCCN[C@H](C)Cc1ccc(OC)c(S(N)(=O)=O)c1` [Tamsulosin], the “first-order primary biodegradation rate constant k” value came to 0.0512 under setting [1]; 0.204 under setting [3]; 0.786 under setting [4]; 1.15 under setting [5]; 0.121 under setting [7]; 0.261 under setting [8]. For the same molecule, the “first-order primary biodegradation rate constant k” value runs as follows: under setting [10], 0.41; under setting [11], 0.0347; under setting [12], 0.0781; under setting [13], 0.0824; under setting [14], 0.0624.
Consider `CCNc1nc(NC(C)(C)C)nc(SC)n1` [Terbutryn], for which the “first-order primary biodegradation rate constant k” value was found to be 0.0714 under setting [2]; 0.0617 under setting [4]; 0.247 under setting [5]; 0.134 under setting [10]; 0.116 under setting [13]; 0.068 under setting [14].
